Results published in the NIST ThermoML archive (doi:10.1016/j.jct.2004.09.005).
Where “and” joins values, the source holds several entries; their conditions need not be identical. Equal values may be shown once. Numbers after ± are expanded uncertainties. Blank lines part the entries; values can stand above or below the molecule they belong to.

How the values were obtained:
[1] = Molar enthalpy of transition or fusion; settings: Crystal; DSC
[2] = Crystal; for vapor or sublimation pressure: Calculated from knudsen effusion weight loss; for Normal melting temperature: DTA

SMILES: O=C(O)c1ccccc1Br [2-bromobenzoic acid]
Molar enthalpy of transition or fusion [1]: 24.8 ± 0.85 kJ/mol | vapor or sublimation pressure ([2]; 327.56 K): 9.4e-05 ± 5e-06 kPa and 9.1e-05 ± 5e-06 kPa | vapor or sublimation pressure ([2]; 330.16 K): 0.000127 ± 6e-06 kPa and 0.000126 ± 6e-06 kPa and 0.000125 ± 6e-06 kPa | vapor or sublimation pressure ([2]; 332.67 K): 0.000169 ± 8e-06 kPa and 0.000174 ± 9e-06 kPa and 0.000167 ± 8e-06 kPa | vapor or sublimation pressure ([2]; 335.15 K): 0.000227 ± 1.1e-05 kPa and 0.000223 ± 1.1e-05 kPa and 0.000224 ± 1.1e-05 kPa | vapor or sublimation pressure ([2]; 337.69 K): 0.000297 ± 1.5e-05 kPa and 0.000299 ± 1.5e-05 kPa and 0.000296 ± 1.5e-05 kPa | vapor or sublimation pressure ([2]; 340.16 K): 0.000402 ± 2e-05 kPa and 0.000394 ± 2e-05 kPa and 0.000392 ± 2e-05 kPa | vapor or sublimation pressure ([2]; 342.63 K): 0.000533 ± 2.7e-05 kPa and 0.000524 ± 2.6e-05 kPa | vapor or sublimation pressure ([2]; 345.16 K): 0.000665 ± 3.3e-05 kPa and 0.000698 ± 3.5e-05 kPa and 0.000678 ± 3.4e-05 kPa | vapor or sublimation pressure ([2]; 347.68 K): 0.000908 ± 4.5e-05 kPa and 0.000897 ± 4.5e-05 kPa and 0.000878 ± 4.4e-05 kPa | Normal melting temperature [2]: 148.5 ± 0.56 °C

SMILES: O=C(O)c1ccccc1Cl [2-chlorobenzoic acid]
Molar enthalpy of transition or fusion [1]: 25.2 ± 0.57 kJ/mol | vapor or sublimation pressure ([2]; 320.16 K): 0.000103 ± 5e-06 kPa and 0.000102 ± 5e-06 kPa and 0.0001 ± 5e-06 kPa | vapor or sublimation pressure ([2]; 322.16 K): 0.000127 ± 6e-06 kPa and 0.000126 ± 6e-06 kPa | vapor or sublimation pressure ([2]; 324.14 K): 0.000166 ± 8e-06 kPa and 0.000164 ± 8e-06 kPa and 0.000163 ± 8e-06 kPa | vapor or sublimation pressure ([2]; 326.14 K): 0.000205 ± 1e-05 kPa and 0.000204 ± 1e-05 kPa and 0.000206 ± 1e-05 kPa | vapor or sublimation pressure ([2]; 329.15 K): 0.0003 ± 1.5e-05 kPa and 0.000294 ± 1.5e-05 kPa | vapor or sublimation pressure ([2]; 332.13 K): 0.000417 ± 2.1e-05 kPa and 0.000414 ± 2.1e-05 kPa and 0.00041 ± 2.1e-05 kPa | vapor or sublimation pressure ([2]; 335.18 K): 0.000584 ± 2.9e-05 kPa and 0.000582 ± 2.9e-05 kPa and 0.000576 ± 2.9e-05 kPa | vapor or sublimation pressure ([2]; 337.14 K): 0.000734 ± 3.7e-05 kPa and 0.000721 ± 3.6e-05 kPa | vapor or sublimation pressure ([2]; 339.15 K): 0.000934 ± 4.7e-05 kPa and 0.000935 ± 4.7e-05 kPa and 0.00092 ± 4.6e-05 kPa | Normal melting temperature [2]: 140.80 ± 0.39 °C

SMILES: O=C(O)c1cccc(Cl)c1 [3-chlorobenzoic acid]
Molar enthalpy of transition or fusion [1]: 23.7 ± 0.56 kJ/mol | vapor or sublimation pressure ([2]; 320.13 K): 0.000109 ± 5e-06 kPa and 0.000106 ± 5e-06 kPa and 0.000104 ± 5e-06 kPa | vapor or sublimation pressure ([2]; 321.18 K): 0.000122 ± 6e-06 kPa and 0.00012 ± 6e-06 kPa and 0.000117 ± 6e-06 kPa | vapor or sublimation pressure ([2]; 324.17 K): 0.000173 ± 9e-06 kPa and 0.000171 ± 9e-06 kPa and 0.00017 ± 9e-06 kPa | vapor or sublimation pressure ([2]; 327.14 K): 0.000241 ± 1.2e-05 kPa and 0.000236 ± 1.2e-05 kPa and 0.000245 ± 1.2e-05 kPa | vapor or sublimation pressure ([2]; 330.15 K): 0.000335 ± 1.7e-05 kPa and 0.000327 ± 1.6e-05 kPa and 0.000324 ± 1.6e-05 kPa | vapor or sublimation pressure ([2]; 333.17 K): 0.000474 ± 2.4e-05 kPa and 0.000472 ± 2.4e-05 kPa and 0.00047 ± 2.4e-05 kPa | vapor or sublimation pressure ([2]; 336.13 K): 0.000655 ± 3.3e-05 kPa and 0.000644 ± 3.2e-05 kPa | vapor or sublimation pressure ([2]; 339.01 K): 0.000896 ± 4.5e-05 kPa and 0.000873 ± 4.4e-05 kPa and 0.000877 ± 4.4e-05 kPa | vapor or sublimation pressure ([2]; 340.13 K): 0.001012 ± 0.0001 kPa and 0.000984 ± 4.9e-05 kPa and 0.00099 ± 5e-05 kPa | Normal melting temperature [2]: 154.72 ± 0.55 °C

Continued, in another order:

Molar enthalpy of transition or fusion [1]: 24.9 ± 0.56 kJ/mol | Normal melting temperature [2]: 156.93 ± 0.45 °C
SMILES: O=C(O)c1cccc(Br)c1 [3-bromobenzoic acid]
vapor or sublimation pressure ([2]; 327.67 K): 0.000111 ± 6e-06 kPa and 0.000113 ± 6e-06 kPa | vapor or sublimation pressure ([2]; 330.66 K): 0.00016 ± 8e-06 kPa and 0.000152 ± 8e-06 kPa | vapor or sublimation pressure ([2]; 332.64 K): 0.0002 ± 1e-05 kPa and 0.000196 ± 1e-05 kPa | vapor or sublimation pressure ([2]; 335.16 K): 0.00025 ± 1.3e-05 kPa and 0.000253 ± 1.3e-05 kPa and 0.000261 ± 1.3e-05 kPa | vapor or sublimation pressure ([2]; 337.71 K): 0.000354 ± 1.8e-05 kPa and 0.000351 ± 1.8e-05 kPa and 0.00035 ± 1.8e-05 kPa | vapor or sublimation pressure ([2]; 340.14 K): 0.000464 ± 2.3e-05 kPa and 0.000451 ± 2.3e-05 kPa and 0.00045 ± 2.3e-05 kPa | vapor or sublimation pressure ([2]; 342.65 K): 0.000596 ± 3e-05 kPa and 0.00059 ± 3e-05 kPa and 0.000584 ± 2.9e-05 kPa | vapor or sublimation pressure ([2]; 345.15 K): 0.000783 ± 3.9e-05 kPa and 0.00077 ± 3.9e-05 kPa and 0.000767 ± 3.8e-05 kPa | vapor or sublimation pressure ([2]; 347.6 K): 0.000995 ± 5e-05 kPa and 0.001004 ± 0.0001 kPa and 0.000982 ± 4.9e-05 kPa

Molar enthalpy of transition or fusion [1]: 30.9 ± 0.68 kJ/mol | Normal melting temperature [2]: 253.19 ± 0.84 °C
SMILES: O=C(O)c1ccc(Br)cc1 [4-bromobenzoic acid]
vapor or sublimation pressure ([2]; 348.67 K): 0.000155 ± 8e-06 kPa and 0.000153 ± 8e-06 kPa and 0.000152 ± 8e-06 kPa | vapor or sublimation pressure ([2]; 350.14 K): 0.000176 ± 9e-06 kPa and 0.00018 ± 9e-06 kPa and 0.000175 ± 9e-06 kPa | vapor or sublimation pressure ([2]; 351.67 K): 0.000202 ± 1e-05 kPa and 0.000205 ± 1e-05 kPa | vapor or sublimation pressure ([2]; 353.14 K): 0.000245 ± 1.2e-05 kPa and 0.00024 ± 1.2e-05 kPa | vapor or sublimation pressure ([2]; 354.65 K): 0.000276 ± 1.4e-05 kPa and 0.000278 ± 1.4e-05 kPa | vapor or sublimation pressure ([2]; 356.17 K): 0.000331 ± 1.7e-05 kPa and 0.000324 ± 1.6e-05 kPa and 0.000326 ± 1.6e-05 kPa | vapor or sublimation pressure ([2]; 357.67 K): 0.000384 ± 1.9e-05 kPa and 0.000389 ± 1.9e-05 kPa and 0.000376 ± 1.9e-05 kPa | vapor or sublimation pressure ([2]; 359.24 K): 0.000448 ± 2.2e-05 kPa and 0.000429 ± 2.1e-05 kPa and 0.000447 ± 2.2e-05 kPa | vapor or sublimation pressure ([2]; 360.65 K): 0.000517 ± 2.6e-05 kPa and 0.000495 ± 2.5e-05 kPa and 0.000512 ± 2.6e-05 kPa | vapor or sublimation pressure ([2]; 362.22 K): 0.000609 ± 3e-05 kPa and 0.000617 ± 3.1e-05 kPa and 0.000611 ± 3.1e-05 kPa | vapor or sublimation pressure ([2]; 363.63 K): 0.000692 ± 3.5e-05 kPa and 0.000703 ± 3.5e-05 kPa and 0.000683 ± 3.4e-05 kPa | vapor or sublimation pressure ([2]; 365.23 K): 0.00082 ± 4.1e-05 kPa and 0.000809 ± 4e-05 kPa | vapor or sublimation pressure ([2]; 366.65 K): 0.000932 ± 4.7e-05 kPa and 0.000909 ± 4.5e-05 kPa
